The source of these data is publication PMC7747594, “Protease-activated receptor-2 ligands reveal orthosteric and allosteric mechanisms of receptor inhibition” (Communications Biology, 2020).

Experiment [1] has as its target T1, hPAR2 (Homo sapiens, UniProt P55085).
T1 sequence (P55085 26-397): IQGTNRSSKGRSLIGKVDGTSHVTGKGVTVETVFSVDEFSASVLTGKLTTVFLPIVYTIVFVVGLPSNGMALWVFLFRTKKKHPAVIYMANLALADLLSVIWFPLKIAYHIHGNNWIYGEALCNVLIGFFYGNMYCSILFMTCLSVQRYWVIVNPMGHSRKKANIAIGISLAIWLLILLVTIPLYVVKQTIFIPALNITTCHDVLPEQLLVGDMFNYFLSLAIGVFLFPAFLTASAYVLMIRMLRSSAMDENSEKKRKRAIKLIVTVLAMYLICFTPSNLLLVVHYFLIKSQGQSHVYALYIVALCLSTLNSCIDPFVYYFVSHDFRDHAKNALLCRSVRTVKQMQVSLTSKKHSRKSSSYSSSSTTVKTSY
Briefly: IP1 assay, agonist mode, 1321N1-hPAR2 cells. Type of experiment: cell-based.

The target in experiment [2] is T1, hPAR2. Put plainly: β-arrestin-2 recruitment, agonist mode, U2OS-hPAR2 cells. The format is cell-based. Details: agonist response (Fig 2f), individual replicate values: unit not given here. For orientation: Arrestin recruitment assays detect the binding of arrestin to an activated receptor.
A further experiment has as its target T2, PAR1 (F2R) (Homo sapiens, UniProt P25116).
T2 sequence (P25116 22-425): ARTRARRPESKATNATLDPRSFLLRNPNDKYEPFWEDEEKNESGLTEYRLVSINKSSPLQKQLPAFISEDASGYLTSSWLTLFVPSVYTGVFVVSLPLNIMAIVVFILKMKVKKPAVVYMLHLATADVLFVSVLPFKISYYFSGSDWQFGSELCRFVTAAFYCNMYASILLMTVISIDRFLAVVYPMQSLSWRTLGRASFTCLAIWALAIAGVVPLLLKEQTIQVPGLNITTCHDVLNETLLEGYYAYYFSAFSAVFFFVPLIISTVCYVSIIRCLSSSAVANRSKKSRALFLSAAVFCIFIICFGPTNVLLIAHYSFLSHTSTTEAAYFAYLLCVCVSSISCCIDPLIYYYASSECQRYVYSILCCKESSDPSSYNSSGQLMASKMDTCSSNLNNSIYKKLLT
Briefly: β-arrestin recruitment, DiscoverX profiling service, PAR1. Type of experiment: cell-based.

The subject of another experiment is PAR2[F154A], PAR2[G157C]. Briefly: Ca^2+ flux assay, inhibition of trypsin in 1321N1 cells transiently transfected with PAR2 [WT], [F154A] or [G157C]. The following applies: [F154A and G157C], monophasic. The format is cell-based, human. How it is done:
Cell culture reagents were purchased from ThermoFisher Scientific unless otherwise stated. The parental 1321N1 cell line was obtained from ECACC. 1321N1 cells, stably expressing the human PAR2 receptor, (1321N1-hPAR2) were routinely cultured in Dulbecco’s Modified Eagle Medium (DMEM) supplemented with GlutaMax-1 containing 10% fetal bovine serum (FBS) and G418 (600 µg ml^−1). U2OS cells, stably expressing human PAR2 (U2OS-hPAR2, 93-0235C3, DiscoverX/Eurofins) were routinely cultured in McCoy’s 5A media containing 10% FBS, G418 (500 µg ml^−1) and Hygromycin B (250 µg ml^−1). Rodent PAR2 was assessed in rat KNRK cells (ATCC) cultured in DMEM with 10% FBS supplemented with 2 mM L-Glutamine. Human PAR2 was assessed in HT-29 cells (ECACC) cultured in DMEM with 10% FBS supplemented with penicillin (50 U ml^−1) and streptomycin (50 µg ml^−1). […]
For evaluation of Ca^2+ mobilisation, 1321N1-hPAR2 cells were seeded in 384-well CellBIND plates (Corning) at 4000 cells per well in DMEM containing 10% FBS and incubated for 18–24 hours at 37 °C, 5% CO2 and 95% humidity. […] Inhibition of Ca^2+ release on rat PAR2 was measured in the same way using 10 000 KNRK cells per well seeded in poly-D-lysine coated 384-well plates (Greiner), 30 min preincubation with the compound before activation of PAR2 with EC80 of SLIGRL-NH2 (120 µM) and real-time detection of Ca^2+. […]

SMILES strings stand for the structures. pEC50, pIC50: −log10 of the molar value. Values joined by “and” are separate entries in the source; they are usually repeats but may differ in a detail not shown here. Equal entries are not always repeated. Where only a bound is given, the exact number is not on record here.

The pEC50 is the negative decadic logarithm of the EC50, by convention in mol/L. As usually defined, the pIC50 is the negative decadic logarithm of the IC50, by convention in mol/L. Take `CNC(=O)[C@H]1CC[C@@H](NC(=O)[C@H](CC2CCCCC2)NC(=O)c2cn(Cc3ccccc3)nn2)c2ccccc21` [AZ2429]: at hPAR2 [1] (1321N1-hPAR2), the “more potent than SLIGKV-NH2, IP1 accumulation” value is reported as 120 fold. Moreover, the EC50 was 200 nM on hPAR2 [1] (1321N1-hPAR2 cells, mean ± s.e.m., read-out: IP1 pEC50 (converted)) and 251 nM at hPAR2 [2] (U2OS-hPAR2, mean ± s.e.m., read-out: β-arrestin pEC50 (converted)). In addition, the “agonist response (Fig 2f), individual replicate values” was 136.003 and 128.564 and 133.913 and 56.5764 and 110.418 and 80.4631 and 65.432 and 80.8727 and 70.3477 and 91.7141 and 102.077 and 89.1574 at hPAR2 [2] ([compound],M -4.52288); 131.19 and 120.248 and 136.172 and 56.4288 and 102.534 and 68.8992 and 68.7979 and 70.6147 and 68.8215 and 77.979 and 96.7821 and 92.1516 at hPAR2 [2] ([compound],M -5); 112.303 and 119.541 and 118.68 and 44.4899 and 108.952 and 63.9568 and 68.1752 and 70.9487 and 60.988 and 94.267 and 96.9331 and 92.4234 on hPAR2 [2] ([compound],M -5.47712); 118.57 and 119.322 and 126.112 and 66.9594 and 124.296 and 94.3698 and 67.5375 and 74.2944 and 72.0498 and 104.83 and 109.824 and 109.97 at hPAR2 [2] ([compound],M -5.95424); 125.477 and 105.411 and 104.73 and 109.603 and 104.761 and 111.037 and 54.7204 and 64.3421 and 52.5276 and 82.0218 and 82.1308 and 78.7213 at hPAR2 [2] ([compound],M -6.43136); 100.424 and 92.4091 and 99.838 and 93.2711 and 86.5209 and 104.138 and 29.1218 and 35.2385 and 27.4797 and 47.1154 and 56.0608 and 47.0166 at hPAR2 [2] ([compound],M -6.90849). Also, the “agonist response (Fig 2f), individual replicate values” on hPAR2 [2] ([compound],M -7.38561) was 86.365 and 78.1735 and 66.0975 and 85.2162 and 75.5111 and 91.061 and 20.8827 and 22.73 and 14.0732 and 38.9752 and 29.9961 and 25.8403; at hPAR2 [2] ([compound],M -7.86273) it was 50.0191 and 38.4004 and 28.0445 and 63.4341 and 52.1546 and 58.7101 and 8.067 and 10.1642 and 0.7234 and 8.708 and 10.6741 and 5.686; at hPAR2 [2] ([compound],M -8.33985), 11.2254 and 10.5953 and 6.644 and 26.1895. In addition, the Max Response on PAR1 (F2R) (Arrestin, Agonist format, F2R) turned out to be 0%; at PAR1 (F2R) (Arrestin, Antagonist format, F2R), 0%. Further, the pEC50 on PAR1 (F2R) (Arrestin, Agonist format, F2R, read-out: RC50 (EC50)) was less than 4.30. Also, the pIC50 at PAR1 (F2R) (Arrestin, Antagonist format, F2R, read-out: RC50 (IC50)) was less than 4.30. For the same compound, the “activity against PAR1 in β-arrestin-2 recruitment assay” value on PAR1 (F2R) (DiscoverX profiling service) is recorded as “No AZ2429 activity was detected”.

`C[C@@H](C1CCCCC1)n1c(-c2cc3c(cc2Br)OCO3)nc2cc(C(=O)Nc3ccc(C#N)cc3)ccc21` [AZ3451]: the “inhibition of trypsin-induced PAR2 activation at mutant receptors pIC50” value in the experiment with PAR2[F154A], PAR2[G157C] amounted to 6.
